According to patent US10570152B2, “Antibacterial therapeutics and prophylactics” (VYOME BIOSCIENCES PVT. LTD., priority 2015, dated 2020):
Converted amounts (≈) assume the structure as drawn.

Key:
[1] = Drug release assay of compound impregnated Smart set HV; format: physicochemical; conditions: Smart set HV loaded; PBS buffer (pH 6.8):acetonitrile (9:1), 32° C., 7 days
Procedure: The drug release study with compound 2 and compound 10 were conducted in sample vial containing 1.5 ml of dissolution media i.e., PBS buffer (pH 6.8):acetonitrile (9:1). The sample was kept in incubator rotator at 32° C. at 40 rpm. The release medium was withdrawn at specified interval of time (2 hr, 4 hr, 6 hr, day 1, day 2, day 3, day 4, day 5, day 6, day 7 and replaced by fresh 1.5 ml dissolution medium each time. All the samples were kept at −20° C. till the analysis is done. The measurement of drug release was done by HPLC.

[2] = system: S. aureus CCARM 3505; experiment: MIC by micro broth dilution; format: cell-based; conditions: Staphylococcus aureus, CCARM3505, read-out: Minimum inhibitory concentration (MIC)
In short: (§1)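 Twofold serial dilutions in BHI broth per CLSI, inoculated with 0.5 McFarland culture (approx. 1.5×10^8 cells/ml) diluted 100-fold. Plates incubated 24 h at 37° C.; MIC read after Alamar blue addition.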

[3] = system: S. epidermidis S12-1; experiment: MIC by micro broth dilution; format: cell-based; conditions: Staphylococcus epidermidis, S121, read-out: Minimum inhibitory concentration (MIC)
In short: as §1

[4] = system: S. epidermidis ATCC 35984; experiment: MIC by micro broth dilution; format: cell-based; conditions: Staphylococcus epidermidis, ATCC35984, read-out: Minimum inhibitory concentration (MIC)
In short: as §1

[5] = system: S. aureus ATCC 43300; experiment: MIC by micro broth dilution; format: cell-based; conditions: Staphylococcus aureus, ATCC43300; S. aureus ATCC 43300; read-out: Minimum inhibitory concentration (MIC)
In short: as §1

[6] = system: E. fecalis CCARM 5168; experiment: MIC by micro broth dilution; format: cell-based; conditions: read-out: Minimum inhibitory concentration (MIC)
In short: as §1

[7] = system: P. aeruginosa CCARM 2204; experiment: MIC by micro broth dilution; format: cell-based; conditions: Pseudomonas aeruginosa, CCARM2204, read-out: Minimum inhibitory concentration (MIC)
In short: as §1

[8] = system: E. coli BAA 196; experiment: MIC by micro broth dilution; format: cell-based; conditions: Escherichia coli, BAA196, read-out: Minimum inhibitory concentration (MIC)
In short: as §1

[9] = system: E. faecium CCARM 5207; experiment: MIC by micro broth dilution; format: cell-based; conditions: Enterococcus faecium, CCARM5207, read-out: Minimum inhibitory concentration (MIC)
In short: as §1

[10] = system: E. aerogenes M2-1; experiment: MIC by micro broth dilution; format: cell-based; conditions: Klebsiella aerogenes, M21, read-out: Minimum inhibitory concentration (MIC)
In short: as §1

[11] = system: P. aeruginosa ATCC 27853; experiment: MIC by micro broth dilution; format: cell-based; conditions: Pseudomonas aeruginosa, ATCC27853, read-out: Minimum inhibitory concentration (MIC)
In short: as §1

[12] = system: K. pneumonia ATCC 13883; experiment: MIC by micro broth dilution; format: cell-based
In short: as §1

[13] = system: P. aeruginosa CCARM 2161; experiment: MIC by micro broth dilution; format: cell-based; conditions: Pseudomonas aeruginosa, CCARM2161, read-out: Minimum inhibitory concentration (MIC)
In short: as §1

[14] = system: S. aureus MTCC 6908; experiment: MIC by micro broth dilution; format: cell-based; conditions: Staphylococcus aureus, MTCC6908, read-out: Minimum inhibitory concentration (MIC)
In short: as §1

[15] = system: A. baumannii ATCC 1906; experiment: MIC by micro broth dilution; format: cell-based; conditions: Acinetobacter baumannii, ATCC1906, read-out: Minimum inhibitory concentration (MIC)
In short: as §1

[16] = system: E. aerogenes NCIM 5139; experiment: MIC by micro broth dilution; format: cell-based; conditions: Klebsiella aerogenes, NCIM5139, read-out: Minimum inhibitory concentration (MIC)
In short: as §1

[17] = system: A. baumannii CCARM 12001; experiment: MIC by micro broth dilution; format: cell-based; conditions: Acinetobacter baumannii, CCARM12001, read-out: Minimum inhibitory concentration (MIC)
In short: as §1

[18] = system: A. baumannii CCARM 12020; experiment: MIC by micro broth dilution; format: cell-based; conditions: Acinetobacter baumannii, CCARM12020, read-out: Minimum inhibitory concentration (MIC)
In short: as §1

[19] = system: E. faecium NCIM 5421; experiment: MIC by micro broth dilution; format: cell-based; conditions: Enterococcus faecium, NCIM5421, read-out: Minimum inhibitory concentration (MIC)
In short: as §1

[20] = system: E. coli MTCC 1687; experiment: MIC by micro broth dilution; format: cell-based; conditions: Escherichia coli, MTCC1687, read-out: Minimum inhibitory concentration (MIC)
In short: as §1

[21] = system: S. epidermidis S5-2; experiment: Sequential ZIB (zone of inhibition) assay for PMMA beads; format: cell-based, Staphylococcus epidermidis; conditions: SmartSet HV impregnated beads
Procedure: S. epidermidis S5-2 cells were grown in Brain Heart Infusion Agar (BHIA) at 37° C. for 24 h. 100 μl of 0.5 McFarland equal bacterial suspension was spread on BHA plates. Drug loaded beads were placed above these plates. Plates were incubated at 37° C. for 24 h. Next day, zone of inhibition (ZOI) the beads were measured following which the beads were placed on fresh BHA plates with bacterial suspension spread and this experiment was continued up to seven days. The drug release pattern was determined by compiling and analyzing the ZOI data of beads on each ZOI cycle up to seven days.

With `CC1Sc2c(C(=O)O)c(=O)c3cc(F)c(N4CCN(Cc5ccc([N+](=O)[O-])o5)CC4)cc3n21` (stereo not shown) [Compound 10, 6-Fluoro-1-methyl-7-(4-((5-nitrofuran-2-yl)methyl)piperazin-1-yl)-4-oxo-1H,4H-[1,3]thiazeto[3,2-a]-quinoline-3-carboxylic acid] the “drug release from bone cement in words” value [1] was “sustained release of active over a period of 7 days”, the MIC [2] was 1 µg/mL (≈ 2.11 µM) and the MIC [3] was 2.25 µg/mL (≈ 4.74 µM). It also gave an MIC [4] of under 0.03 µg/mL, an MIC [5] of under 0.02 µg/mL and an MIC [6] of 1 µg/mL (≈ 2.11 µM). It also gave an MIC [7] of 4 µg/mL (≈ 8.43 µM), an MIC [8] of 4 µg/mL (≈ 8.43 µM) and an MIC [9] of over 16 µg/mL. The MIC [10] was 0.25 µg/mL (≈ 0.527 µM), the MIC [11] was 1 µg/mL (≈ 2.11 µM) and the activity in words ([12]; Klebsiella pneumonia (susceptible)) was “active”. The MIC ([12]; Klebsiella pneumoniae, ATCC13883, K. pneumonia ATCC 13883, read-out: Minimum inhibitory concentration (MIC)) was 0.25 µg/mL (≈ 0.527 µM), the MIC [13] was over 16 µg/mL and the MIC [14] was 0.04 µg/mL (≈ 0.0843 µM). For the same compound, the MIC [15] was 1 µg/mL (≈ 2.11 µM), the MIC [16] was 0.125 µg/mL (≈ 0.263 µM) and the MIC [17] was over 16 µg/mL. The MIC [18] was 8 µg/mL (≈ 16.9 µM), the MIC [19] was 0.125 µg/mL (≈ 0.263 µM) and the MIC [20] was 0.13 µg/mL (≈ 0.274 µM). For the same compound, the “Sequential ZOI” value ([21]; Day-1) was 2.2 cm, the “Sequential ZOI” value ([21]; Day-2) was 2 cm and the “Sequential ZOI” value ([21]; Day-3) was 1.8 cm. The “Sequential ZOI” value ([21]; Day-4) was 1.7 cm, the “Sequential ZOI” value ([21]; Day-5) was 1.7 cm and the “Sequential ZOI” value ([21]; Day-6) was 1.6 cm. The “Sequential ZOI” value ([21]; Day-7) was 1.8 cm.
